# Laboratory results from patent publication US20140350029A1 (DAINIPPON SUMITOMO PHARMA CO., LTD., priority 2011, published 2014).
# Columns and labels:
# [1] = Lurasidone monotherapy for bipolar I depression, 6-week study, safety and tolerability; assay type: in vivo, human
# [2] = molecular target: T1, serotonin 5-HT1A receptor (Homo sapiens, UniProt P08908); test: Functional assay, effect on receptor function; assay type: biochemical
# T1 sequence (P08908 1-422): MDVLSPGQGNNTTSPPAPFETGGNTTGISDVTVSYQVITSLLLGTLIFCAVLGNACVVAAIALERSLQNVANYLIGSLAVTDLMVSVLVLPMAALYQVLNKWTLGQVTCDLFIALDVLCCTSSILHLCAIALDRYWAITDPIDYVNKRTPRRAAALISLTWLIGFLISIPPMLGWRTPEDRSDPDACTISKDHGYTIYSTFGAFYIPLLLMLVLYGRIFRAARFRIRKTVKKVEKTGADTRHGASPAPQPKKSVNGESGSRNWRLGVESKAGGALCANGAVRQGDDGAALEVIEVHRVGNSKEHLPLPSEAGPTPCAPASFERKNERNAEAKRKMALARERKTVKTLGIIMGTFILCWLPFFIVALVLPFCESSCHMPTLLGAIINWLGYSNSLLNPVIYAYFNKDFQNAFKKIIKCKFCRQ
# Protocol: In vitro binding studies were carried out according to the procedures well-established in the art. Membranes from male Wistar rat brain tissues or cells expressing cloned human receptors were prepared under assay conditions summarized in Ishibashi, T. et al. (Journal of Pharmacology and Experimental Therapeutics (2010)). Functional assays were carried out to analyze the binding affinity and effect on receptor function for dopamine D1-D4 receptor subtypes, serotonin 5-HT1A, 5-HT2A, 5-HT2C, 5-HT6, 5-HT7, norepinephrine α1, α2A, α2C, histamine H1 receptors, and muscarinic M1 receptors.
# 5-HT7 receptor = 5-HT7 receptor (Homo sapiens, UniProt P34969); settings: background statement; cited from earlier work
# Dopamine D3 receptor = molecular target: T2, Dopamine D3 receptor (Homo sapiens, UniProt P35462); test: In vitro receptor binding, dopamine D3; settings: cloned cells expressing human receptors; read-out: Binding Affinities (Ki; nM) Dopamine D3
# T2 construct: expressed in transfected cells
# [3] = test system: patients with schizophrenia; test: Quality of Well-Being (QWB-SA), 6-week placebo-controlled study; assay type: in vivo, human; settings: 80 mg and 160 mg lurasidone per day, 6 weeks
# Protocol: Quality of Well-Being (QWB) was measured according to the procedures well-established in the art. The QWB was a self administered questionnaire (QWB-SA), where the combined score ranged from 0 to 1.0 (death to optimal functioning). A patient diagnosed with schizophrenia answered five sections assessing the presence/absence of 19 chronic symptoms or problems, physical symptoms, and mental health symptoms and behaviors as well as an assessment of a person's mobility, physical activity and social activity including completion of role expectations. […] In addition, the relationship between other indicators of therapy outcome, for example, cognitive composite scores, PANSS scores, Negative Symptom Assessment Scale scores (NSA), and Montgomery-Asberg Depression Rating Scale scores (MADRS), was evaluated in relation to quality of life, as assessed by the QWB-SA. […] In addition, partial correlations were found between improvement of QWB-SA and PANSS scores, QWB-SA and MADE scores, QWB-SA and NSA scores, and QWB-SA and cognitive composite scores.
# dopamine D2 receptor = dopamine D2 receptor (Homo sapiens, UniProt P14416); settings: background statement; cited from earlier work
# [4] = test system: patients with bipolar I depression; test: Lurasidone adjunctive to lithium or divalproex for bipolar I depression, 6-week study, efficacy; assay type: in vivo, human; settings: lurasidone 20-120 mg/day adjunctive to lithium or divalproex, 6 weeks
# Protocol: Changes from DB baseline (DB BL) in MADRS total score and secondary efficacy outcomes were analyzed using either mixed model for repeated measures (MMRM) or analysis of covariance, last observation carried forward (ANCOVA-LOCF), or logistic regression.
# Therapeutic blood levels of Li or VPA had to be maintained for ≧28 days prior to randomization.
# The total duration of treatment was 6 weeks.
# A mixed model for repeated measures (MMRM) was utilized using the ITT population. The results are depicted in FIG. 16. The MMRM model included treatment, visit, pooled center, stratification variable (lithium or divalproex), baseline MADRS total score, and the treatment-by-visit interactions. An unstructured covariance matrix was used for the within-subject correlation. Missing observations were not imputed for this analysis.
# Efficacy was also evaluated by measuring the change from baseline in CGI-BP-S score (depression) and the change from baseline in SDS total score. The results are depicted in FIGS. 17 and 18. CGI-BP-S was analyzed using the MMRM method described above, and SDS was analyzed using an analysis of covariance (ANCOVA) model with treatment, visit, pooled center, stratification variable (lithium or divalproex) and the baseline value of SDS. The ITT population was used for the analyses.
# [5] = Lurasidone 20-60 mg, listed as LUR
# [6] = Lurasidone 80-120 mg, listed as LUR
# dopamine D2 receptor, sequence (P14416 whole entry): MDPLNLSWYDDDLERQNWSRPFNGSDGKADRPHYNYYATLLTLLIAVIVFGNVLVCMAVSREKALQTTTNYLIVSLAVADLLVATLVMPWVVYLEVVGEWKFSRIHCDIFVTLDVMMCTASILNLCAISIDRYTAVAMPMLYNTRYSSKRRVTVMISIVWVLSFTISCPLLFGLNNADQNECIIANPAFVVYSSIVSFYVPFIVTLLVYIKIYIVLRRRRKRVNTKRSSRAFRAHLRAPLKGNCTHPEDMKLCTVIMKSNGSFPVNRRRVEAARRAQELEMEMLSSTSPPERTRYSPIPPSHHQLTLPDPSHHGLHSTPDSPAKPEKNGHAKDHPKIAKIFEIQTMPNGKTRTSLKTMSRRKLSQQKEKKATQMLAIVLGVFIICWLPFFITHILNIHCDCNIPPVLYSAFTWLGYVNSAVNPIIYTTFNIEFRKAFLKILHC
# 5-HT7 receptor, sequence (P34969 whole entry): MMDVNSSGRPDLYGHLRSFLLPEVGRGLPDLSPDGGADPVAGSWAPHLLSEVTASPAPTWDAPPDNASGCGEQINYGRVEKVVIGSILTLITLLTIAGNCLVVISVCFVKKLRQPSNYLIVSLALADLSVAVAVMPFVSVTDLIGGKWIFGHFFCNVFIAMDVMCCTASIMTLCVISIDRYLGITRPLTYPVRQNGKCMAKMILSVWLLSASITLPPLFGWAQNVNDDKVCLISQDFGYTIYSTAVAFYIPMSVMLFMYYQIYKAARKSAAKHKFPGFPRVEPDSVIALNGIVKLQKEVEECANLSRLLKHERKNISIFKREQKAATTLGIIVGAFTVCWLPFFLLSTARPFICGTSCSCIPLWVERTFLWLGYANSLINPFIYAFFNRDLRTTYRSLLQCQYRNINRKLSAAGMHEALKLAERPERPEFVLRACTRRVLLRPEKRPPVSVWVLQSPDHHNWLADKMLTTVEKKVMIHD
# T2 sequence (P35462 whole entry): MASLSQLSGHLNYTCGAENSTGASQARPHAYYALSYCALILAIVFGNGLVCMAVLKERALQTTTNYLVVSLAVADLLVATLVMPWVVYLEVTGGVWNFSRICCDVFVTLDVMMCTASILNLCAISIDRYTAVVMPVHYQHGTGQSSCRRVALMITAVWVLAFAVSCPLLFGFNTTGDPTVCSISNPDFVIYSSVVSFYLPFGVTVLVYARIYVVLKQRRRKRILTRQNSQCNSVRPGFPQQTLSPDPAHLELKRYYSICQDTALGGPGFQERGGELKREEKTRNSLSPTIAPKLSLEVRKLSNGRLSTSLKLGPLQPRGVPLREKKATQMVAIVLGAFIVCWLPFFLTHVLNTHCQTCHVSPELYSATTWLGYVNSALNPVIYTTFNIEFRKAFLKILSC
compound,measurement,setting,value
O=C1[C@@H]2[C@H]3CC[C@H](C3)[C@@H]2C(=O)N1C[C@@H]1CCCC[C@H]1CN1CCN(c2nsc3ccccc23)CC1 [Lurasidone],"Adverse Events: Akathisia, incidence",[1]; Lurasidone 20-60 mg,13 (7.9%)
same,"Adverse Events: Dizziness, incidence",[1]; Lurasidone 20-60 mg,4 (2.4%)
same,"Adverse Events: Headache, incidence",[1]; Lurasidone 20-60 mg,23 (14.0%)
same,"Adverse Events: Insomnia, incidence",[1]; Lurasidone 20-60 mg,8 (4.9%)
same,"Adverse Events: Nausea, incidence",[1]; Lurasidone 20-60 mg,17 (10.4%)
same,"Adverse Events: Sedation, incidence",[1]; Lurasidone 20-60 mg,5 (3.0%)
same,"Adverse Events: Somnolence, incidence",[1]; Lurasidone 20-60 mg,7 (4.3%)
same,Cholesterol (mg/dL) median change (at LOCF endpoint),[1]; Lurasidone 20-60 mg,0.0 mg/dL
same,Glucose (mg/dL) median change (at LOCF endpoint),[1]; Lurasidone 20-60 mg,-1.0 mg/dL
same,Triglycerides (mg/dL) median change (at LOCF endpoint),[1]; Lurasidone 20-60 mg,+3.0 mg/dL
same,Weight (kg) mean change (at LOCF endpoint),[1]; Lurasidone 20-60 mg,+0.56 kg
same,"Adverse Events: Akathisia, incidence",[1]; [5],7.9%
same,"Adverse Events: Headache, incidence",[1]; [5],14.0%
same,"Adverse Events: Nausea, incidence",[1]; [5],10.4%
same,"Adverse Events: Akathisia, incidence",[1]; Lurasidone 80-120 mg,18 (10.8%)
same,"Adverse Events: Dizziness, incidence",[1]; Lurasidone 80-120 mg,10 (6.0%)
same,"Adverse Events: Headache, incidence",[1]; Lurasidone 80-120 mg,15 (9.0%)
same,"Adverse Events: Insomnia, incidence",[1]; Lurasidone 80-120 mg,11 (6.6%)
same,"Adverse Events: Nausea, incidence",[1]; Lurasidone 80-120 mg,17.4%
same,"Adverse Events: Sedation, incidence",[1]; Lurasidone 80-120 mg,12 (7.2%)
same,"Adverse Events: Somnolence, incidence",[1]; Lurasidone 80-120 mg,11 (6.6%)
same,Cholesterol (mg/dL) median change (at LOCF endpoint),[1]; Lurasidone 80-120 mg,-3.0 mg/dL
same,Glucose (mg/dL) median change (at LOCF endpoint),[1]; Lurasidone 80-120 mg,0.0 mg/dL
same,Triglycerides (mg/dL) median change (at LOCF endpoint),[1]; Lurasidone 80-120 mg,-2.0 mg/dL
same,Weight (kg) mean change (at LOCF endpoint),[1]; Lurasidone 80-120 mg,+0.02 kg
same,"Adverse Events: Akathisia, incidence",[1]; [6],10.8%
same,"Adverse Events: Headache, incidence",[1]; [6],9.0%
same,"Adverse Events: Nausea, incidence",[1]; [6],17.4%
same,discontinuation rates due to adverse events,[1]; lurasidone 20 to 60 mg/day,7%
same,discontinuation rates due to adverse events,[1]; lurasidone 80 to 120 mg/day,6%
same,"changes in weight, lipids and measures of glycemic control","[1]; monotherapy, 20-60 and 80-120 mg/day, 6 weeks",Minimal changes
same,effect on 5-HT1A receptor function,[2],partial agonist
same,reported affinity for 5-HT7 receptor,5-HT7 receptor,high affinity
same,Ki,Dopamine D3 receptor,15.7 nM
same,QWB-SA score compared to placebo (endpoint ANCOVA),[3],significant improvement
same,reported affinity for dopamine D2 receptor,dopamine D2 receptor,high affinity
same,depressive symptoms compared to placebo,[4],significantly reduced depressive symptoms
same,"self-rated measures of social, family, and occupational function as well as quality of life",[4],significantly improved
